{
  "source": "patent EP1073452B1",
  "about": "“USE OF […] TREATING CYTOKINE MEDIATED HEPATIC INJURY” (University of Kentucky Research Foundation, priority 1998, dated 2003)",
  "test_system": "Male BALB/c HSD mice",
  "test": "Survival of mice rendered hepatotoxic by LPS/GAL treatment (model for septic shock / hepatic failure)",
  "type": "in vivo",
  "experimental": "Hepatic failure was induced in mice by intraperitoneal injections of a mixture of lipopolysaccharide (LPS) (100 µg/kg) and D-galactosamine (GAL) (700 mg/kg) to form LPS/GAL. LPS is a bacterial endotoxin that is a major stimulus for production of many cytokines, particularly tumor necrosis factor (TNF), thought to be involved in liver injury. GAL is an amino sugar that sensitizes hepatocytes by depleting the base uridine and thus preventing hepatic transcription, and sensitizes animals to normally innocuous amounts of endotoxin or TNF. The LPS/GAL treatment induces fulminate hepatic and multiorgan failure, and serves as a model for septic shock. The major effects of LPS/GAL are elicited by the inflammatory cytokine TNF-α. Hepatocytes sensitized to TNF-α then undergo apoptosis or programmed cell death in response to inflammatory processes.\nMice were treated with deltorphin and were subsequently rendered hepatotoxic by LPS/GAL treatment. An emulsion of deltorphin I SEQ ID NO:1 (Tyr-D-Ala-Phe-Asp-Val-Val-Gly-NH2) was prepared at a concentration of 80 µg/200 µl in sterile phosphate buffered saline (PBS). An emulsion of DADLE (Tyr-D-Ala-Gly-Phe-D-Leu-enkephalin) was also prepared at a concentration of 80 µg/200 µl in sterile PBS. Male BALB/c HSD mice were treated by intraperitoneal injections according to the following protocol. Control mice (n = 7) received only LPS/GAL (280 µl) at 6.5 h. Deltorphin I SEQ ID NO:1 treated mice (n = 15) received injections of 4 mg/kg deltorphin I SEQ ID NO:1 at 0 h, 2 h, 4 h, 6 h and 7.5 h and received an LPS/GAL injection at 6.5 h. DADLE treated mice (n = 15) received 4 mg/kg DADLE at 0 h, 2 h, 4 h, 6 h and 7.5 h and received an LPS/GAL injection at 6.5 h.\nBoth control and treated mice were monitored at 15 h, 20 h, 40 h and 65 h after the last injection. TABLE",
  "key": {"[1]": {"settings": "n = 15, 4 mg/kg intraperitoneal at 0 h, 2 h, 4 h, 6 h and 7.5 h, LPS/GAL at 6.5 h, 15 h after the last injection"}, "[2]": {"settings": "n = 15, 4 mg/kg intraperitoneal at 0 h, 2 h, 4 h, 6 h and 7.5 h, LPS/GAL at 6.5 h, 20 h after the last injection"}, "[3]": {"settings": "n = 15, 4 mg/kg intraperitoneal at 0 h, 2 h, 4 h, 6 h and 7.5 h, LPS/GAL at 6.5 h, 40 h after the last injection"}, "[4]": {"settings": "n = 15, 4 mg/kg intraperitoneal at 0 h, 2 h, 4 h, 6 h and 7.5 h, LPS/GAL at 6.5 h, 65 h after the last injection"}},
  "data": [
    {"substance": "Tyr-D-Ala-Gly-Phe-D-Leu-enkephalin [DADLE]", "values": [
      {"measurement": "survival time", "setting": "mice made septic by LPS/GAL treatment, compared to mice receiving LPS/GAL only", "value": "not as striking"},
      {"measurement": "SURVIVAL 15 Hours (number of mice)", "setting": "[1]", "value": 3},
      {"measurement": "SURVIVAL 15 Hours (percent)", "setting": "[1]", "value": 20, "unit": "%"},
      {"measurement": "SURVIVAL 20 Hours (number of mice)", "setting": "[2]", "value": 3},
      {"measurement": "SURVIVAL 20 Hours (percent)", "setting": "[2]", "value": 20, "unit": "%"},
      {"measurement": "SURVIVAL 40 Hours (number of mice)", "setting": "[3]", "value": 3},
      {"measurement": "SURVIVAL 40 Hours (percent)", "setting": "[3]", "value": 20, "unit": "%"},
      {"measurement": "SURVIVAL 65 Hours (number of mice)", "setting": "[4]", "value": 3},
      {"measurement": "SURVIVAL 65 Hours (percent)", "setting": "[4]", "value": 20, "unit": "%"}
    ]}
  ]
}
